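These data come from cells grown in 96-well plates and exposed to compound for 48 hours at five concentrations. GI50: concentration for 50% inhibition of growth. At the TGI there is no net growth.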
Columns and labels:
Assay in all cases: NCI-60 cell line screen, 48 h; in the data active = GI50 below about 0.43 µM; inactive = the rest
[1] = tested on: 786-0 renal
[2] = tested on: A498 renal
[3] = tested on: A549 NSCLC
[4] = tested on: ACHN renal
[5] = tested on: BT-549 breast
[6] = tested on: CAKI-1 renal
[7] = tested on: CCRF-CEM leukemia
[8] = tested on: COLO 205 colon
[9] = tested on: DU-145 prostate
[10] = tested on: HCC-2998 colon
[11] = tested on: HCT-116 colon
[12] = tested on: HCT-15 colon
[13] = tested on: HL-60(TB) leukemia
[14] = tested on: HOP-62 NSCLC
[15] = tested on: HOP-92 NSCLC
[16] = tested on: HS 578T breast
[17] = tested on: HT29 colon
[18] = tested on: IGROV1 ovarian
[19] = tested on: K-562 leukemia
[20] = tested on: KM12 colon
[21] = tested on: LOX IMVI melanoma
[22] = tested on: M14 melanoma
[23] = tested on: MALME-3M melanoma
[24] = tested on: MCF7 breast
[25] = tested on: MDA-MB-231 breast
[26] = tested on: MDA-MB-435
[27] = tested on: MOLT-4 leukemia
[28] = tested on: NCI-H226 lung
[29] = tested on: NCI-H23 lung
[30] = tested on: NCI-H460 lung
[31] = tested on: NCI-H522 lung
[32] = tested on: NCI/ADR-RES ovarian
[33] = tested on: OVCAR-3 ovarian
[34] = tested on: OVCAR-4 ovarian
[35] = tested on: OVCAR-5 ovarian
[36] = tested on: OVCAR-8 ovarian
[37] = tested on: PC-3 prostate
[38] = tested on: RPMI-8226 leukemia
[39] = tested on: RXF 393 renal
[40] = tested on: SF-268 CNS
[41] = tested on: SF-295 CNS
[42] = tested on: SF-539 CNS
[43] = tested on: SK-MEL-2 melanoma
[44] = tested on: SK-MEL-28 melanoma
[45] = tested on: SK-MEL-5 melanoma
[46] = tested on: SK-OV-3 ovarian
[47] = tested on: SN12C renal
[48] = tested on: SNB-19 CNS
[49] = tested on: SNB-75 CNS
[50] = tested on: SR leukemia
[51] = tested on: SW-620 colon
[52] = tested on: T-47D breast
[53] = tested on: TK-10 renal
[54] = tested on: U251 CNS
[55] = tested on: UACC-257 melanoma
[56] = tested on: UACC-62 melanoma
[57] = tested on: UO-31 renal

COc1ccc([I+]c2ccccc2)cc1
inactive: GI50 [1] 16.4 µM | GI50 [2] 1.9 µM | GI50 [3] 4.38 µM | GI50 [4] 42.7 µM | GI50 [5] 4.12 µM | GI50 [6] 12.5 µM | GI50 [7] 2.86 µM | GI50 [8] 5.95 µM | GI50 [9] 23 µM | GI50 [10] 10 µM | GI50 [11] 0.735 µM | GI50 [12] 42.1 µM | GI50 [13] 5.22 µM | GI50 [14] 2.91 µM | GI50 [15] 6.55 µM | GI50 [16] 15.9 µM | GI50 [17] 4.22 µM | GI50 [18] 8.99 µM | GI50 [19] 1.45 µM | GI50 [20] 4.27 µM | GI50 [21] 3.47 µM | GI50 [22] 9.09 µM | GI50 [23] 7.8 µM | GI50 [24] 5.69 µM | GI50 [25] > 78.2 µM | GI50 [26] 10.1 µM | GI50 [27] 7.59 µM | GI50 [28] 12.2 µM | GI50 [29] 3.75 µM | GI50 [30] 5.17 µM | GI50 [31] 24.5 µM | GI50 [32] > 100 µM | GI50 [33] 8.86 µM | GI50 [34] 1.34 µM | GI50 [35] > 100 µM | GI50 [36] 1.37 µM | GI50 [37] 9.07 µM | GI50 [38] 2.04 µM | GI50 [39] 13.9 µM | GI50 [40] 6.3 µM | GI50 [41] 7.17 µM | GI50 [42] 6.77 µM | GI50 [43] 51.4 µM | GI50 [44] 25.9 µM | GI50 [45] 2.61 µM | GI50 [46] 50.2 µM | GI50 [47] 40.3 µM | GI50 [48] 11.3 µM | GI50 [49] 14 µM | GI50 [50] 1.78 µM | GI50 [51] 3.37 µM | GI50 [52] 9.22 µM | GI50 [53] 17.4 µM | GI50 [54] 7.94 µM | GI50 [55] 8.81 µM | GI50 [56] 37.2 µM | GI50 [57] 26.8 µM
78.2 µM: TGI [41]
> 78.1 µM: TGI [38]
79.2 µM: TGI [14]
> 93.2 µM: TGI [2]
> 95.1 µM: TGI [13]
81.9 µM: TGI [15]
> 100 µM: TGI [1] | TGI [3] | TGI [4] | TGI [6] | TGI [7] | TGI [8] | TGI [9] | TGI [10] | TGI [11] | TGI [12] | TGI [16] | TGI [17] | TGI [18] | TGI [19] | TGI [20] | TGI [21] | TGI [22] | TGI [23] | TGI [24] | TGI [25] | TGI [26] | TGI [27] | TGI [28] | TGI [29] | TGI [30] | TGI [31] | TGI [32] | TGI [33] | TGI [34] | TGI [35] | TGI [36] | TGI [37] | TGI [39] | TGI [40] | TGI [42] | TGI [43] | TGI [44] | TGI [46] | TGI [47] | TGI [48] | TGI [49] | TGI [50] | TGI [51] | TGI [52] | TGI [53] | TGI [54] | TGI [55] | TGI [56] | TGI [57]
> 78.8 µM: TGI [5]
11.5 µM: TGI [45]

Source: PubChem BioAssay (NCI)
